Assay results from ChEMBL document CHEMBL1128607, “Structure-based design of novel HIV protease inhibitors: carboxamide-containing 4-hydroxycoumarins and 4-hydroxy-2-pyrones as potent nonpeptidic inhibitors” (J Med Chem, 1995).

target: Human immunodeficiency virus type 1 protease (Human immunodeficiency virus 1, UniProt Q72874); assay: Ability to inhibit HIV protease purified and refolded from Escherichia coli inclusion bodies

| SMILES | Ki [µM] |
| --- | --- |
| CCC(Cc1ccccc1)c1cc(O)c(C(c2cccc(NC(=O)Cc3ccncc3)c2)C2CC2)c(=O)o1 (stereo not drawn) | 0.044 |
| CCC(Cc1ccccc1)c1cc(O)c(C(c2cccc(NC(=O)[C@H](Cc3c[nH]cn3)NC(=O)OC(C)(C)C)c2)C2CC2)c(=O)o1 (stereo partly drawn) | 0.004 |
| CCC(c1cccc(C(=O)N[C@H](C(=O)NCc2ccccn2)C(C)CC)c1)c1c(O)oc2ccccc2c1=O (stereo partly drawn) | 0.4 |
| CCC(c1cccc(C(=O)NCc2nc3ccccc3[nH]2)c1)c1c(O)oc2ccccc2c1=O (stereo not drawn) | 4.4 |
| CCC(c1cccc(NC(=O)CCNC(=O)OC(C)(C)C)c1)c1c(O)oc2cc(OC)ccc2c1=O (stereo not drawn) | 0.17 |
| CC(C)(C)OC(=O)NCCC(=O)Nc1cccc(C(c2c(O)oc3ccccc3c2=O)C2CC2)c1 (stereo not drawn) | 0.086 |
| COc1ccc2c(O)c(C(c3ccccc3)C3CC3)c(=O)oc2c1 (stereo not drawn) | 0.17 |
| CCC(Cc1ccccc1)c1cc(O)c(C(c2cccc(NC(=O)[C@H](C)NC(=O)OC(C)(C)C)c2)C2CC2)c(=O)o1 (stereo partly drawn) | 0.015 |
| CCC(Cc1ccccc1)c1cc(O)c(C(c2cccc(NC(=O)[C@H](Cc3cn(S(=O)(=O)c4ccc(C)cc4)cn3)NC(=O)OC(C)(C)C)c2)C2CC2)c(=O)o1 (stereo partly drawn) | 0.019 |
| O=c1oc2ccccc2c(O)c1C(c1ccccc1)C1CC1 (stereo not drawn) | 0.35 |
| CCC(c1cccc(NC(=O)CCNC(=O)OC(C)(C)C)c1)c1c(O)c2ccccc2oc1=O (stereo not drawn) | 0.28 |
| CCC(c1cccc(NC(=O)[C@H](C)NC(=O)OC(C)(C)C)c1)c1c(O)c2ccccc2oc1=O (stereo partly drawn) | 0.17 |
| CCC(c1cccc(NC(=O)CCCNC(=O)OC(C)(C)C)c1)c1c(O)c2ccccc2oc1=O (stereo not drawn) | 1.6 |
| CCC(c1ccccc1)c1c(O)c2ccc(OC)cc2oc1=O (stereo not drawn) | 0.56 |
| CCC(c1cccc(NC(=O)[C@@H]2CCCN2C(=O)OC(C)(C)C)c1)c1c(O)c2ccccc2oc1=O (stereo partly drawn) | 3.6 |
| CCC(c1cccc(NC(=O)CCn2ccc3ccccc32)c1)c1c(O)c2ccccc2oc1=O (stereo not drawn) | 0.11 |
| CCC(c1cccc(NC(=O)CNC(=O)OC(C)(C)C)c1)c1c(O)c2ccccc2oc1=O (stereo not drawn) | 0.16 |
| COc1ccc2c(O)c(C(c3cccc(NC(=O)CCNC(=O)OC(C)(C)C)c3)C3CC3)c(=O)oc2c1 (stereo not drawn) | 0.028 |
